Experimental data taken from patent US12128132B2, “Drug delivery formulations” (MedinCell S.A., priority 2019, dated 2024).

Test: Stability of risperidone stock solution
Format: physicochemical
Settings: 200 μg/mL in acetonitrile/H2O (50/50 v/v), stored at +2-8° C.
Procedure: Starting from this mother solution, calibration standards were prepared by dilution in the same sample solvent mixture as above. Six dilutions were performed to obtain calibration standards of 1, 5, 10, 25, 50, 100 and 200 μg/mL.

Cc1nc2n(c(=O)c1CCN1CCC(c3noc4cc(F)ccc34)CC1)CCCC2 [risperidone]
stability of stock solution: ≥ 5 months
